Data taken from PubChem BioAssay (NCI).
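Where inhibition never reached the appropriate level, the endpoint shown equals the highest concentration tested. Otherwise, values were interpolated linearly from a five-concentration, 48-hour dose response in 96-well plates. GI50 is the concentration that inhibits growth by half. TGI marks complete inhibition of growth.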 Where a SMILES comes first, the peptide text is derived from it.

How the values were obtained:
Assay in all cases: NCI tumour cell line growth inhibition, 48 h
[1] = test system: HOP-92 NSCLC
[2] = test system: K-562 leukemia
[3] = test system: SK-MEL-5 melanoma
[4] = test system: U251 CNS
[5] = test system: SK-MEL-2 melanoma
[6] = test system: RPMI-8226 leukemia
[7] = test system: A549 NSCLC
[8] = test system: ACHN renal
[9] = test system: MOLT-4 leukemia
[10] = test system: NCI/ADR-RES ovarian

SMILES	TGI [1]	TGI [2]	TGI [3]	TGI [4]	TGI [5]	TGI [6]	TGI [7]	TGI [8]	TGI [9]	GI50 [3]	GI50 [10]	TGI [10]	GI50 [8]	GI50 [9]	GI50 [2]	GI50 [4]	GI50 [5]	GI50 [6]	GI50 [7]	GI50 [1]
O=[N+]([O-])c1cc(Cl)ccc1OCc1ccccc1	92.5 µM	> 100 µM	70.5 µM	> 100 µM	> 100 µM	> 100 µM	> 100 µM	> 100 µM	> 100 µM											
CCC(C)C1NC(=O)C2CCCN2C(=O)CNC(=O)C(C)NC(=O)C(Cc2ccccc2)NC(=O)C(C(C)C)NC1=O (stereo unspecified) (cyclo(GPIVFA); configuration not given here)	> 100 µM		> 100 µM	> 100 µM		> 100 µM	> 100 µM	> 100 µM	> 100 µM											
O=[N+]([O-])c1ccccc1C=NC12CC3CC(CC(C3)C1)C2	> 100 µM	> 100 µM	> 100 µM	> 100 µM	> 100 µM	> 100 µM	> 100 µM	> 100 µM	> 100 µM											
CC12CO[C@@](C)(CC(S(=O)(=O)c3ccccc3)C1)O2 (stereo partly specified)	> 100 µM	> 100 µM	> 100 µM	> 100 µM	> 100 µM	> 100 µM	> 100 µM	> 100 µM	> 100 µM											
CCCCc1n(Cc2ccc3ccccc3c2)cc[n+]1Cc1ccc2ccccc2c1			1.86 µM					4.19 µM	3.4 µM	0.612 µM	15.8 µM	39.8 µM	1.97 µM	1.39 µM						
COc1cc2c(cc1OC)NC(=O)NC(Cc1ccc3c(c1)OCO3)CC2 (stereo unspecified)	> 100 µM	> 100 µM	> 100 µM		> 100 µM	> 100 µM	> 100 µM	> 100 µM	> 100 µM											
COC(=O)C1C=NNC1C(=O)OC (stereo unspecified)		> 100 µM	> 100 µM	> 100 µM	> 100 µM	> 100 µM	> 100 µM	> 100 µM	> 100 µM											
Cc1ccc(C2=C(c3ccc(C)cc3)C3(c4ccc(C)cc4)C4C(=O)c5ccccc5C(=O)C4C2(c2ccc(C)cc2)S3=O)cc1 (stereo unspecified)		> 100 µM	> 100 µM	> 100 µM	> 100 µM	> 100 µM	> 100 µM	> 100 µM	> 100 µM	> 100 µM	> 100 µM	> 100 µM	> 100 µM	> 100 µM	> 100 µM	63 µM	> 100 µM	> 100 µM	> 100 µM	
CN[C@@H](C)[C@H](N)c1ccccc1	> 100 µM	> 100 µM	> 100 µM	> 100 µM		> 100 µM	> 100 µM	> 100 µM	> 100 µM											
CCOC(=N)CC(=O)Nc1cccc(Cl)c1		> 100 µM	> 100 µM	> 100 µM	> 100 µM		> 100 µM	> 100 µM	> 100 µM											
CC(=O)[CH-]C(=O)c1ccccc1.CC(=O)[CH-]C(=O)c1ccccc1.Cl.[O-]c1ccccn1.[O-]c1ccccn1.[Ti+4]		> 100 µM	> 100 µM	> 100 µM	> 100 µM	> 100 µM	> 100 µM	> 100 µM	> 100 µM	> 100 µM			> 100 µM	> 100 µM	> 100 µM	> 100 µM	> 100 µM	> 100 µM	> 100 µM	
COc1ccc2c(c1)[n+]([O-])c(-c1ccc(C)cc1)c(N)[n+]2[O-]	> 100 µM	> 100 µM	> 100 µM	> 100 µM	> 100 µM	> 100 µM	> 100 µM	> 100 µM												
O=C(CC1(O)C(=O)Nc2ccccc21)c1ccc(O)cc1 (stereo unspecified)	> 100 µM	> 100 µM	> 100 µM	> 100 µM	> 100 µM	> 100 µM	> 100 µM	> 100 µM	> 100 µM											
CC1(C)C(=O)/C=C\C(=O)C(C)(C)C(=O)/C=C\C(=O)C(C)(C)C(=O)/C=C\C(=O)C(C)(C)C(=O)/C=C\C1=O	29.1 µM	39.4 µM	56.2 µM	64.3 µM	47.5 µM	24.2 µM	> 100 µM	> 63.2 µM	26.7 µM											
C=C1C2CC(OC(C)=O)C3(C)C(c4ccoc4)OC(=O)[C@@H](O)[C@]13OC1C[C@H](OC(C)=O)C(C)(C)[C@H](CC(=O)OC)[C@]12C (stereo partly specified)	> 100 µM	> 100 µM	> 100 µM	> 100 µM	> 100 µM	> 100 µM	> 100 µM	> 100 µM	> 100 µM											
COc1cccc2c1C(=O)c1c(O)c3c(c(O)c1C2=O)C[C@@](O)(C(=O)CO)CC3OC1CC(O)C(O)C(C)O1 (stereo partly specified)	2.26 µM	5.51 µM	0.687 µM	13.9 µM	1.58 µM		3.99 µM	0.598 µM				12.5 µM								
O=S1(=O)CCCS(=O)(=O)C(c2ccccc2)=C1c1ccccc1	85.3 µM	> 100 µM	> 100 µM	> 100 µM	> 100 µM	> 100 µM	> 100 µM	> 100 µM	> 100 µM											
Clc1ccc2nc(-c3ccccc3)nc(Cl)c2c1	50.3 µM	> 100 µM	> 100 µM	> 100 µM	> 100 µM	> 100 µM	> 100 µM	76.9 µM	> 100 µM											
COc1ccc(/C=C2\CN(Cc3cn(CCNc4ccnc5cc(Cl)ccc45)nn3)C/C(=C\c3ccc(OC)c(OC)c3)C2=O)cc1OC		> 100 µM	3.75 µM	27.7 µM	26.6 µM	39 µM	40.4 µM	19.9 µM	40.2 µM	1.72 µM	> 100 µM	> 100 µM	5.25 µM	3.5 µM	3.21 µM	3.2 µM	3.88 µM	3 µM	4.73 µM	

SMILES	TGI [1]	TGI [2]	TGI [3]	TGI [4]	TGI [5]	TGI [6]	TGI [7]	TGI [8]	TGI [9]	GI50 [3]	GI50 [10]	TGI [10]	GI50 [8]	GI50 [9]	GI50 [2]	GI50 [4]	GI50 [5]	GI50 [6]	GI50 [7]	GI50 [1]
CCCCNC(=O)Oc1ccc(/C(=C(/C)Cc2ccc(OC)cc2)c2ccc(OCCN3CCCC3)cc2)cc1		5.13 µM	3.17 µM	3.31 µM	4.23 µM	4.85 µM	3.8 µM	3.32 µM	7.72 µM	1.66 µM	3.11 µM	11.6 µM	1.79 µM	1.98 µM	1.57 µM	1.82 µM	2.13 µM	2.2 µM	1.95 µM	
COC(=O)N/N=C(/CCC(=O)Nc1ccc(C)c(C)c1)CC(=O)C(C)(C)C		> 100 µM	> 100 µM	> 100 µM	> 100 µM	> 100 µM	> 100 µM	> 100 µM	> 100 µM											
CC1C[C@]2(C[C@@H](C)C(=O)O2)O[C@@H]2CC3(C)[C@@H]4CCC5C(C)(C)OC(=O)C[C@H]6OO[C@]4(CC[C@]3(C)C12)CC56O (stereo partly specified)			> 100 µM	> 100 µM	> 100 µM	> 100 µM	> 100 µM	> 100 µM												
CCOC(=O)C1=C(C)N(NC(N)=O)C(C)(O)C12CCOC2=O (stereo unspecified)		> 100 µM	> 100 µM	> 100 µM	> 100 µM	> 100 µM	> 100 µM	> 100 µM	> 100 µM											
CC1=C(C(=O)Nc2ccc([N+](=O)[O-])cc2)C(c2ccc3c(c2)OCO3)C(C(=O)Nc2ccc([N+](=O)[O-])cc2)=C(C)N1	38.9 µM	> 100 µM		> 100 µM	35 µM	68.5 µM	> 100 µM	> 100 µM												
CN1CCN(Cc2ccc(NC(=O)c3cncc(C#Cc4cncc5nccnc45)c3)cc2C(F)(F)F)CC1		9.86 µM	8.63 µM	13 µM	2.7 µM	10.6 µM	11.4 µM	6.48 µM	13.2 µM	2.61 µM	6.68 µM	25.1 µM	1.57 µM	1.89 µM	0.005 µM	5.67 µM	0.915 µM	1.86 µM	4.3 µM	
COc1ccc(-c2cc(-c3cc(Cl)cc(Br)c3O)[nH]c(=O)n2)cc1	34.7 µM	41.7 µM		31.3 µM		49 µM	33.7 µM	27.7 µM	35.3 µM											
Cc1cccc(N2C(=O)C(=O)C(c3nc4ccccc4s3)/C(=N/NC(=S)NN)C2=O)c1C (stereo unspecified)	> 100 µM	> 100 µM	> 100 µM	> 100 µM	> 100 µM	> 100 µM		> 100 µM	> 100 µM											
CCN(CC)C(=O)N1CCN(C=S)CC1		> 100 µM	> 100 µM	> 100 µM	> 100 µM		> 100 µM	> 100 µM	> 100 µM											
COCCN1CCN(Cc2ccc(-c3n[nH]c4c3C(=O)c3c(NC(=O)NN5CCOCC5)cccc3-4)cc2)CC1		> 10 µM			0.0556 µM	0.0833 µM	0.214 µM	> 10 µM	0.228 µM	0.0269 µM	0.713 µM	> 10 µM	0.0512 µM	0.0212 µM	0.032 µM	0.0204 µM	0.0212 µM	0.0288 µM	0.0289 µM	
NCCOc1ccccc1/C=C1\c2ccccc2-c2ccc([N+](=O)[O-])cc21	2.75 µM		3.22 µM	2.74 µM	3.34 µM	3.63 µM		2.69 µM		1.8 µM	1.77 µM	3.54 µM	1.38 µM			1.38 µM	1.8 µM	1.79 µM		1.33 µM
Cc1ccc(C2=Nc3c(N)ncnc3NC(c3ccc4c(c3)OCO4)C2)cc1 (stereo unspecified)		> 100 µM	37.5 µM	16.3 µM			52.9 µM	36.7 µM	> 100 µM	3.85 µM	3.52 µM	22.9 µM	7.74 µM	2.66 µM	4.19 µM	4.55 µM			7.09 µM	
O=C1Nc2ccccc2/C1=C\c1nc(C2CCN(S(=O)(=O)c3ccc(F)cc3)CC2)n2ccccc12		> 100 µM		11.4 µM	7.35 µM	> 100 µM	> 100 µM	> 100 µM	> 100 µM		3.43 µM	> 100 µM	4.07 µM	> 100 µM	> 100 µM	2.53 µM	2.08 µM	> 100 µM	> 100 µM	
OCCNCCCOc1ccc2ncnc(Nc3ccc(Oc4cccc(C(F)(F)F)c4)c(Cl)c3)c2c1	2.37 µM	4.48 µM			3.38 µM	4.1 µM		2.28 µM			2.65 µM	9.3 µM	1.09 µM		1.79 µM		1.7 µM	1.51 µM		1.05 µM
CC1(C)C=N[N+]2(C)C3C=CC(CC3)C12 (stereo unspecified)	> 100 µM	> 100 µM	> 100 µM	> 100 µM	> 100 µM	> 100 µM	> 100 µM	> 100 µM	> 100 µM											
C=CC1(NS(=O)(=O)c2ccc(C)cc2)CCC(C(C)(C)C)CC1 (stereo unspecified)		> 100 µM	> 100 µM	> 100 µM	> 100 µM	> 100 µM	> 100 µM	> 100 µM	> 100 µM											
O=[N+]([O-])c1ccc(/C=C/c2csnn2)cc1	> 100 µM	> 100 µM	> 100 µM	> 100 µM	> 100 µM	> 100 µM	> 100 µM	> 100 µM	> 100 µM											
CC(C)CC(Nc1c(O)ccc2ccccc12)C(=O)O (stereo unspecified)		> 100 µM	38.7 µM	> 100 µM	42.5 µM	> 100 µM	> 100 µM	76 µM	> 100 µM			> 100 µM								
Cc1cc(N2CCCC2)nc(NCc2cc(Nc3ccnc4cc(Cl)ccc34)ccc2F)n1	2.57 µM		2.2 µM	2.84 µM	3.31 µM	5.04 µM	3.47 µM	3.06 µM		1.01 µM	1.39 µM	2.99 µM	1.53 µM			1.5 µM	1.74 µM	0.404 µM	1.71 µM	1.19 µM
